Consider three molecules from patent publication US20230263725A1, “INTRANASAL ADMINISTRATION OF AN ANTIOXIDANT COMPOUND FOR TREATING CORONAVIRUS INFECTION” (priority 2020, published 2023).

Where “and” joins values, the source holds several entries; their conditions need not be identical. Equal values may be shown once. Read-outs that look alike come from different tables or passages of the source.

A short description of data set [1]: Safety and tolerability of intranasal NAC in healthy subjects.
In data set [2] the test system is A/H1N1 Singapore 6/86 influenza virus. The conditions noted are these: oral NAC over 6 months; control 79%; cited from earlier work.
The conditions of data set [3]: cited from earlier work; for F total meas (total bioavailability experimentally determined): naltrexone 4 mg.
The subject of another data set is GSH levels in the brain. Particulars: NAC delivered intranasally and orally; cited from earlier work.
For data set [4], the system named is brain glutathione (GSH/Cr). The experiment in a line: Intranasal NAC, brain glutathione by MEGA PRESS MR Spectroscopy in healthy subjects. It is filed as in vivo, humans. As for the experimental part: In this example, intranasal administration of NAC to healthy humans was studied.
The study consisted of two study periods each involving 3 subjects and was designed to provide rapid proof-of-concept data on the ability of intranasal NAC to increase brain GSH levels. In Study Period 1, three right-handed male subjects, and 58 were evaluated. After informed consent and completion of a medical history questionnaire, each subject participated in multiple MR Spectroscopy sessions. On the first day, each subject was scanned once. A T1-weighted thin slice data set was acquired for subsequent positioning of a MR spectroscopy voxel (5×5×3 cm3) positioned with its posterior edge covering the genu of the corpus callosum, extending anteriorly into the frontal lobes.
GSH levels were determined within the volume of interest using […] double-editing for the cysteinyl β-CH2 residue of GSH. Spectral editing was accomplished by refocusing GSH J-evolution during every other acquisition (ON), using a Gaussian pulse centered at the cysteinyl α-CH resonance of GSH at 4.56 p.p.m. During the alternate acquisitions (OFF), the pulse was applied symmetrically about the water peak. The difference-edited GSH spectrum was generated by subtraction of the OFF and ON spectra. Data analysis was accomplished using the GANNET software package which provided information on the GSH/Cr ratio. The Day 1 scan served as an initial baseline.
On Day 2, another baseline evaluation was performed, along with two additional scans at 1-hour and 2-hours post administration of intranasal NAC. The timing of Day 2 scans was shifted relative to Day 1, such that the time-of-day for the Day 1 baseline scan matched the time-of-day of the Day 2, 1-hour post NAC scan. This is illustrated in FIG. 2 and was done to provide control for potential circadian rhythm effects in GSH levels. In FIG. 2, green bars show times of spectroscopic imaging. The time-of-day for the baseline MRS scan on Day 1 matches the time-of-day for the 1-hour post-NAC scan on Day 2.
Solution was delivered as six alternating bursts of 0.33 ml to each nostril over the course of 5-10 minutes.
In Study Period 2, three additional right-handed male subjects, and 31 were studied. MRS data were collected on a single day, with baseline, 1 hr, 2 hrs, and 4 hrs post-NAC evaluations (as illustrated in FIG. 5). The same spectroscopic methods as used in period 1 were employed. However, a multi-dose pump intranasal delivery device was used.

The test system of another data set is SARS-CoV-2. Nature of the data set: Oral NAC in mild or moderate COVID-19, open label controlled study NCT04419025. Type of data set: in vivo.
The conditions of data set [5]: intranasal, with versus without DDM.
Setting [6] is: study period 1, intranasal 20% MUCOMYST, 1 ml per nostril, mucosal atomization device, subject (male).
[7] abbreviates: study period 2, intranasal, multi-dose pump, (male).
Setting [8] is: intranasal + DDM, sumatriptan 10 mg.
The mark [9] stands for this setting: intranasal, without DDM, sumatriptan 20 mg.

Turning to `CC(=O)N[C@@H](CS)C(=O)O` [NAC, N-acetyl cysteine], in data set [1] (intranasal NAC), the “changes in heart-rate, breathing rate, O2 saturation or blood pressure” value is reported as “No significant changes”; the “duration of transient nausea” value is less than 5 min; the “subjects voicing complaints about the NAC odor” value is 5 of 6. For the same molecule, in data set [1] (intranasal NAC, 6 subjects), the adverse events result is on record as “no adverse events were reported” and the “subjects reporting very mild transient nausea” value turned out to be 2. The “complaints of NAC fluid into the throat” value in data set [1] (mucosal atomizer, study period 1) was “all three subjects complained”. Besides, the “complaints of NAC fluid into the throat” value in data set [1] (multi-dose pump, study period 2) is given as “not found”. The “developed a symptomatic form of the A/H1N1 Singapore 6/86 influenza virus” value in data set [2] was 25%. Further, in data set [3] (oral dosing), the “bioavailability of oral NAC” value was 10% and 9-10%. The “effect on GSH levels in the brain” value in the data set with GSH levels in the brain is “increase in GSH levels in the brain”. Besides, the “time of peak levels” value in data set [4] (all subjects, FIG. 8) was 1 to 2 h. The “effect on brain GSH as measured by MR spectroscopy” value in data set [4] (intranasal NAC) was “statistically significant increase”. The “brain GSH levels above baseline at 4 hours” value in data set [4] (intranasal NAC, 4 hours, FIG. 8) is on record as ~ 35%. Besides, the “increase in brain GSH levels (average percent change in GSH/Cr)” value in data set [4] (intranasal NAC, combined across all subjects, FIG. 8) is greater than 50%. The “time for which the increase in brain GSH/Cr level is sustained post-administration” value in data set [4] (study period 1) was “at least 2 hours”. In data set [4] (setting [6]), the “Day 2, 1-hour post-NAC GSH/Cr” value was 0.059 and 0.037 and 0.031; the “Day 2, 2-hours post-NAC GSH/Cr” value was 0.052 and 0.035 and 0.048. For the same molecule, in data set [4] (study period 2), the “time for which increased brain GSH/Cr levels are maintained” value is recorded as “at least 4 hrs”. Besides, in data set [4] (setting [7]), the “1-hr post-NAC GSH/Cr” value was 0.034 and 0.053 and 0.050; the “2-hours post-NAC GSH/Cr” value is 0.039 and 0.042 and 0.045; the “4 hrs-hours post-NAC GSH/Cr” value is 0.036 and 0.041 and 0.042. The “fewer days in the hospital versus no NAC” value with SARS-CoV-2 (hospitalized group, oral NAC) was 1 days. For the same molecule, the hospitalization days in the data set with SARS-CoV-2 (hospitalized group, oral NAC 25 mg/kg every 4 hours, 6 days without NAC) is 5 days. Besides, the deaths entry with SARS-CoV-2 (hospitalized group, oral NAC, group without NAC had 2-3 deaths) is listed as “no deaths”. The “increase in hospitalization needed for those who did not receive oral NAC” value in the data set on SARS-CoV-2 (outpatients) is roughly 5 x. In the data set with SARS-CoV-2 (outpatients, mild cases, oral NAC 2400 mg then 1200 mg 2x/day for 2 weeks, 15% without NAC), the outpatients needing hospitalization is 3-4%.
Regarding `O=C1CC[C@@]2(O)[C@H]3Cc4ccc(O)c5c4[C@@]2(CCN3CC2CC2)[C@H]1O5` [Naltrexone], the “F total meas (total bioavailability experimentally determined)” value in data set [3] (setting [8]) is listed as 95%; in data set [3] (setting [9]), 65%.
In the case of `CNS(=O)(=O)Cc1ccc2[nH]cc(CCN(C)C)c2c1` [Sumatriptan], the “increase in bioavailability when dosed together with DDM” value in data set [5] is given as 35%. For the same molecule, the entries for the “F total meas (total bioavailability experimentally determined)” value in data set [3] (setting [8]) and in data set [3] (setting [9]) were 69% and 34%, respectively.
